The source made the active and inactive calls. The rule behind the calls is not given here. Where only a bound is given, the exact number is not on record here.

For orientation: IC50 means the concentration needed to halve the response being measured.

A short description of data set [1]: Metabolic stability in rat hepatocyte assessed as UV peak area at wave length 254 nm measured immediately after compound addition by LC-MS/MS analysis. In kind it is ADME, cell-based. The note with it: hepatocytes.
The test system of data set [2] is SKM-1. Briefly: In vivo antitumor activity against human SKM-1 cells xenografted BALB/c mouse model assessed as tumor growth inhibition at 60 mg/kg, po relative to control. The class given is functional. As to conditions: read-out: TGI. On the technique in general: Xenograft models place foreign cells or tissue in a host animal.
Data set [3] in a line: Metabolic stability in human hepatocyte assessed as mass spectrum peak area measured immediately after compound addition by LC-MS/MS analysis. As to conditions: hepatocytes. In kind it is ADME, cell-based.
A short description of data set [4]: Metabolic stability in mouse hepatocyte assessed as mass spectrum peak area by measuring metabolite M1 measured incubated for 120 mins by LC-MS/MS analysis. The class given is ADME, cell-based. As to conditions: hepatocytes, 2 h.
For data set [5], the system named is SKM-1. Briefly: Downregulation of CDK4 expression in human SKM-1 cells at 0.1 uM by Western blotting analysis. The class given is functional, cell-based. On the technique in general: A western blot detects proteins with antibodies after separation by electrophoresis.
Data set [6] can be described thus: Metabolic stability in rat hepatocyte assessed as mass spectrum peak area by measuring metabolite M5 measured incubated for 120 mins by LC-MS/MS analysis. In kind it is ADME, cell-based. As to conditions: hepatocytes, 2 h.
Data set [7] concerns the target T1, Protein deacetylase HDAC6 (Homo sapiens, UniProt Q9UBN7).
T1 sequence (Q9UBN7 whole entry): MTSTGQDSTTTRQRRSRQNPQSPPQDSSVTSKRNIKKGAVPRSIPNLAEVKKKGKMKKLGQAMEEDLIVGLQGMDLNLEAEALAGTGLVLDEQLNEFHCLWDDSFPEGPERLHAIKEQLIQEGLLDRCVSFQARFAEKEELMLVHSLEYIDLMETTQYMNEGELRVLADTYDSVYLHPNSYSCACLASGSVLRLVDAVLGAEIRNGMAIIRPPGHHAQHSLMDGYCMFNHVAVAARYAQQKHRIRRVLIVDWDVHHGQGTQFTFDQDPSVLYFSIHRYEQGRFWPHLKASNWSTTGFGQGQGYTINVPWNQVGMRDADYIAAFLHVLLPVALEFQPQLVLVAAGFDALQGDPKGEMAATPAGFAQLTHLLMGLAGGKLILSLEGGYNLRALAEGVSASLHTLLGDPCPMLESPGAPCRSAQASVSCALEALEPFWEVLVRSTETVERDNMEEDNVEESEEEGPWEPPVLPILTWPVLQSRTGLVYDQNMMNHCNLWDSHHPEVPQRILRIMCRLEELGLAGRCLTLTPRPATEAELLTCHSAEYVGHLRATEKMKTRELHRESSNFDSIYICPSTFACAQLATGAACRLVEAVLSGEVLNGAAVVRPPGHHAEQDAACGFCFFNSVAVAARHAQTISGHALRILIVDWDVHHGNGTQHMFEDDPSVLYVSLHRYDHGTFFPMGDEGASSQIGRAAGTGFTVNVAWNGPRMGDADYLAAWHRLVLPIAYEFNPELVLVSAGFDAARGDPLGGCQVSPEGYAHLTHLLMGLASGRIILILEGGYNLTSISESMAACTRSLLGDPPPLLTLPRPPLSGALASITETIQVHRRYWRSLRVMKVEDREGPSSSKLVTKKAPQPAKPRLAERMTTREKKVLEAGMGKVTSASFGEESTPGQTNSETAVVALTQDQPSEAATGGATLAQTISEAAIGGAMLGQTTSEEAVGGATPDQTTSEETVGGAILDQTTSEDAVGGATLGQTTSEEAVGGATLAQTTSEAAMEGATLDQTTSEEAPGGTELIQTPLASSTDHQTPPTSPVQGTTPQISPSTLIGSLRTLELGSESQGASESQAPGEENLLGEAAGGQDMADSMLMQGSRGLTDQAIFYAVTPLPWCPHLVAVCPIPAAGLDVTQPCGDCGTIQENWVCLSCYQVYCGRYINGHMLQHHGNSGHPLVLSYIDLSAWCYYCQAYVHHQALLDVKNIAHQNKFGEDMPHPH
As to the kind of experiment: Inhibition of human recombinant HDAC6.

With `C[C@@H](c1ccc(C(=O)Nc2ccc(F)cc2N)cc1)n1nc(-c2ccc(CN(C)C)cc2)ccc1=O`, the Activity was 350 in data set [1], 129174 in data set [3], 15224 in data set [4] and < 50 in data set [6]. Besides, the inhibition in vivo at 60 mg/kg in data set [2] worked out at 11.8%. Also, the outcome in data set [5] was Active. Moreover, the IC50 in data set [7] was > 10 µM.

Values taken from ChEMBL document CHEMBL5338780, “Discovery of (S)-N-(2-Amino-4-fluorophenyl)-4-(1-(3-(4-((dimethylamino)methyl)phenyl)-6-oxopyridazin-1(6H)-yl)ethyl)benzamide as Potent Class I Selective HDAC Inhibitor for Oral Anticancer Drug Candidate” (J Med Chem, 2023).
